Measurements as given in patent US9266852B2, “Daidzein derivative, pharmaceutically acceptable salt and preparation method thereof, and pharmaceutical composition containing same” (ANHUI BIOCHEM BIO-PHARMACEUTICAL CO., LTD, priority 2011, dated 2016).
Counter-ions that a name gives are not always drawn.

Legend:
[1] = Experiment of solubility: solvent equilibrium experiment in methanol, gravimetric analysis; type: physicochemical; conditions: for solubility (solvent equilibrium experiment): methanol, 25°C, at least 20 hours, gravimetric, approximate
Procedure: in the water bath at 25±5° C., the solvent equilibrium experiment was performed on the above materials for at least 20 hours by using 1 mL methanol, then the solution was filtered and dried in the air for 10 minutes, and after the solvent was evaporated under vacuum, the approximate solubilities of the above materials in the solvent was measured through gravimetric analysis, with results shown in table 1.

[2] = test system: mice with hypoxia tolerance at normal pressure; test: Hypoxia tolerance of mice at normal pressure (survival time in closed jar); type: in vivo; conditions: for effect on hypoxia tolerance time, in words: conclusion from table 4, mice, intraperitoneal; for Survival times (X ± s) / Prolongation rates (survival time): mice; for Survival times (X ± s): 20 min after administration, n = 10, control group 22.5 ± 2.6; for Prolongation rates (survival time): versus control group
Procedure: 70 mice were taken and randomly divided into seven groups, except the blank group which was not administered and the saline group which was administered with the same volume of saline, the remaining five groups were respectively injected intraperitoneally with 25 mg/kg pueraria daidzein, 36 mg/kg compound of the example of the present application, 47 mg/kg 4,7-disubstituted daidzein, 36 mg/kg 4-substituted daidzein and 36 mg/kg USP compound (the converted dose of each compound is equivalent to the dose of the daidzein, since the daidzein is difficult to dissolve in water, 50% propylene glycol aqueous solution is used to dissolve, and other compounds were dissolved with water to achieve a suitable concentration), 20 min after administration, the mice were put into a 250 ml grinding jar (where 10 g soda lime was placed), with one mouse in each jar, and the jar was capped tightly after the mouse was put into the jar, then the survival time of the mice was immediately recorded by a stopwatch.

decapitated mice = test: Acute cerebral ischemia in mice (gasping time of decapitated mice); type: in vivo; conditions: for effect on acute ischemia tolerance time, in words: conclusion from table 5, mice, intraperitoneal; for Gasping times (X ± s) / Prolongation rates (gasping time): decapitated mice; for Gasping times (X ± s): 20 min after administration, n = 10, control group 18.5 ± 3.1; for Prolongation rates (gasping time): versus control group
Procedure: 70 mice were taken and randomly divided into seven groups, except the blank group which was not administered and the saline group which was administered with the same volume of saline, the remaining five groups were respectively injected intraperitoneally with 25 mg/kg pueraria daidzein, 36 mg/kg compound of the example of the present application, 47 mg/kg 4,7-disubstituted daidzein, 36 mg/kg 4-substituted daidzein and 36 mg/kg USP compound (the converted dose of each compound is equivalent to the dose of the daidzein, since the daidzein is difficult to dissolve in water, 50% propylene glycol aqueous solution is used to dissolve, and other compounds were dissolved with water to achieve a suitable concentration), 20 min after administration, the mice were decapitated rapidly from behind the ear, then the time starting from decapitation to the last gasp was recorded.

[3] = test system: euglobulin lysis time of guinea pigs; test: Euglobulin lysis time of guinea pigs (antithrombotic effect research 1); type: in vivo; conditions: for antithrombotic effect after oral administration, in words: conclusion from table 6, guinea pigs; for Optimal dissolution times (X ± s), after administration / Fibrinolytic enzyme activities, after administration / Optimal dissolution times (X ± s), before administration / Fibrinolytic enzyme activities, before administration: guinea pigs; for Optimal dissolution times (X ± s), after administration: 30 minutes after last administration; for Fibrinolytic enzyme activities, after administration / Fibrinolytic enzyme activities, before administration: =10000/optimal dissolution time (min); for Optimal dissolution times (X ± s), before administration / Fibrinolytic enzyme activities, before administration: baseline before administration
Procedure: 30 guinea pigs were taken and randomly divided into five groups, each group was administered intragastrically with 25 mg/kg pueraria daidzein, 36 mg/kg compound of the example of the present application, 47 mg/kg 4,7-disubstituted daidzein, 36 mg/kg 4-substituted daidzein, and 36 mg/kg USP compound (the converted dose of each compound is equivalent to the dose of the daidzein, since the daidzein is difficult to dissolve in water, 50% propylene glycol aqueous solution is used to dissolve, and other compounds were dissolved with water to achieve a suitable concentration), 1.5 ml blood was taken from the heart before administration, and after 7 consecutive days of administration, 1.5 ml blood was taken from the heart 30 minutes after the last administration, and put into a sodium citrate anti-cruor tube, and the plasma was separated by centrifugation, then 0.5 ml plasma was taken and added with 9 ml distilled water and 0.1 ml of 1% acetic acid solution, and the mixture was centrifugated after being refrigerated for 30 minutes, then the resulting precipitate was dissolved with 0.5 ml sodium borate buffer (pH9.0), and the dissolution time was recorded as euglobulin lysis time, it can be obtained through calculation that fibrinolytic enzyme activity (u)=10000/optimal dissolution time (min).

thrombus = test: Formation time and length of thrombus in rabbit blood, thrombosis instrument (antithrombotic effect research 2); type: in vivo, rabbits; conditions: for antithrombotic effect after oral administration, in words: conclusion from table 7, rabbits; for Lengths of thrombus, after administration / Thrombus formation times (X ± s), after administration / Lengths of thrombus, before administration / Thrombus formation times (X ± s), before administration: rabbits; for Lengths of thrombus, after administration: 15 minutes rotation; for Thrombus formation times (X ± s), after administration: 30 minutes after last administration; for Lengths of thrombus, before administration / Thrombus formation times (X ± s), before administration: baseline before administration
Procedure: 30 rabbits were taken and randomly divided into five groups, each group was administered intragastrically with 15 mg/kg pueraria daidzein, 22 mg/kg compound of the example of the present application, 28 mg/kg 4,7-disubstituted daidzein, 22 mg/kg 4-substituted daidzein and 22 mg/kg USP compound (the converted dose of each compound is equivalent to the dose of the daidzein, since the daidzein is difficult to dissolve in water, 50% propylene glycol aqueous solution is used to dissolve, and other compounds were dissolved with water to achieve a suitable concentration), 2 ml blood was taken from the heart before administration, and after 7 consecutive days of administration, 2 ml blood was taken from the heart 30 minutes after the last administration, and injected immediately into the rotating ring of the thrombosis instrument, and rotated at 15-17 rpm under 37° C., and the rotating time of the thrombus alone with the ring was recorded, which is defined as thrombus formation time of fibrin, the rotation was stopped after 15 minutes, the thrombus was taken out, and the length of the thrombus was measured.

rat in vitro thrombosis = test: Anti-thrombosis experiment: rat in vitro thrombosis after oral administration (artery-jugular vein blood flow bypass method); type: in vivo, rat (Wistar, male)
Procedure: 1. Rat in vitro general artery-jugular vein blood flow in the bypass method (please refer to “Journal of Changchun University of Traditional Chinese Medicine”, 2011, Volume 27, Issue 4, Pages 514-518, Yunfei Sun, Min Shi, “Study on the Effect of Pueraria Injection on Thrombosis Formation, Cerebral Ischemia and Platelet Aggregation in Rats);
1. Experiment in vivo: the dose is 50 mg/kg, 100 mg/kg, 200 mg/kg, and the animals are administered intragastrically once daily at 1 ml/100 g […] for 3 consecutive days;
2. Positive control, the animals are administered with acetylsalicylic acid (produced by Northwest Second Synthetic Pharmaceutical Factory) at 45 mg/kg in the experiment in vivo.

[4] = test system: whole blood in vitro thrombosis of normal rats; test: Anti-thrombosis experiment: whole blood in vitro thrombosis after in vitro administration (in vitro thrombosis instrument method); conditions: Rattus norvegicus, read-out: Thrombosis inhibition rates
Procedure: ii) Experimental animals: Wistar, which is a male rat outbreeding closed system, purchased from the Institute of Laboratory Animal Sciences, Chinese Academy of Medical Sciences, weighing 242±11.2 g, the animals are divided into 5 groups with 10 animals in each group.
Experiment in vitro: the dose is 1.56 mg/kg, 3.12 mg/kg, 6.25 mg/kg, and the animals are administered once directly.
Blank control, the animals are administered with the same volume of distilled water in the experiment in vivo; and administered with the same volume of saline in the experiment in vitro;

[5] = 15 mg/kg intragastrically 7 consecutive days
[6] = 36 mg/kg intragastrically 7 consecutive days
[7] = 36 mg/kg intragastrically 7 days
[8] = 22 mg/kg intragastrically 7 consecutive days

Structure (SMILES)	solubility (solvent equilibrium experiment) [1]	Survival times (X ± s) ([2]; 36 mg/kg intraperitoneally)	Gasping times (X ± s) (decapitated mice; 36 mg/kg intraperitoneally)	Prolongation rates (gasping time) (decapitated mice; 36 mg/kg intraperitoneally)	Optimal dissolution times (X ± s), after administration [3, 6]	Fibrinolytic enzyme activities, after administration [3, 7]	Optimal dissolution times (X ± s), before administration ([3]; 36 mg/kg group)	Fibrinolytic enzyme activities, before administration ([3]; 36 mg/kg group)	Lengths of thrombus, after administration (thrombus; [8])	Thrombus formation times (X ± s), after administration (thrombus; [8])	Lengths of thrombus, before administration (thrombus; 22 mg/kg group)	Thrombus formation times (X ± s), before administration (thrombus; 22 mg/kg group)	also measured
O=c1c(-c2ccc(O)cc2)coc2cc(O)ccc12 [Pueraria daidzein, daidzein]	16.8 mg/g												effect on hypoxia tolerance time, in words [2]: poor effect; Survival times (X ± s) ([2]; 25 mg/kg intraperitoneally): 28.1 ± 5.3 min; Prolongation rates (survival time) ([2]; 25 mg/kg intraperitoneally): 24.9%; effect on acute ischemia tolerance time, in words (decapitated mice): poor effect; Gasping times (X ± s) (decapitated mice; 25 mg/kg intraperitoneally): 23.1 ± 6.2 s; Prolongation rates (gasping time) (decapitated mice; 25 mg/kg intraperitoneally): 24.9%; antithrombotic effect after oral administration, in words [3]: weak antithrombotic effect; Optimal dissolution times (X ± s), after administration ([3]; 25 mg/kg intragastrically 7 consecutive days): 27.3 ± 8.4 min; Fibrinolytic enzyme activities, after administration ([3]; 25 mg/kg intragastrically 7 days): 366.3 u; Optimal dissolution times (X ± s), before administration ([3]; 25 mg/kg group): 34.5 ± 10.1 min; Fibrinolytic enzyme activities, before administration ([3]; 25 mg/kg group): 289.9 u; antithrombotic effect after oral administration, in words (thrombus): weak antithrombotic effect; Lengths of thrombus, after administration (thrombus; [5]): 12.8 ± 1.49 cm; Thrombus formation times (X ± s), after administration (thrombus; [5]): 7.18 ± 1.27 min; Lengths of thrombus, before administration (thrombus; 15 mg/kg group): 14.2 ± 1.95 cm; Thrombus formation times (X ± s), before administration (thrombus; 15 mg/kg group): 6.21 ± 1.23 min
CN(C)CCCC(=O)Oc1ccc2c(=O)c(-c3ccc(O)cc3)coc2c1 [USP compound, 7-O—N,N-dimethyl-aminobutyryl daidzein]		24.6 ± 5.7 min	23.5 ± 7.2 s	27%	25.7 ± 7.7 min	389.1 u	35.5 ± 8.2 min	281.7 u	11.8 ± 2.01 cm	7.31 ± 1.72 min	14.1 ± 3.84 cm	6.37 ± 1.72 min	Prolongation rates (survival time) ([2]; 36 mg/kg intraperitoneally): 9.3%
CCN(CC)CC(=O)Oc1ccc(-c2coc3cc(O)ccc3c2=O)cc1 [4-substituted daidzein]		21.1 ± 6.4 min	20.3 ± 8.1 s	9.7%	29.3 ± 5.7 min	341.3 u	30.3 ± 9.4 min	330.0 u	14.1 ± 2.17 cm	7.25 ± 1.34 min	14.7 ± 2.02 cm	6.44 ± 1.71 min	
CC(=O)Oc1ccccc1C(=O)O [Acetylsalicylic acid, acetylsalicylic acid]													inhibition at 45 mg/kg (rat in vitro thrombosis; po, rat, 45 mg/kg, positive control, read-out: Thrombosis inhibition rates): 58.7%; Wet weights of thrombus (rat in vitro thrombosis; rat, 45 mg/kg, positive control, n = 10, saline group 30.18 ± 3.12): 11.38 ± 1.47 mg; inhibition at 1.46 mg/kg [4]: 32.1%
CCN(CC)CC(=O)Oc1ccc2c(=O)c(-c3ccc(O)cc3)coc2c1 [7-O—N,N-diethyl-aminoacetyl daidzein hydrochloride]													solubility, in words ([1]; conclusion from table 1, methanol 25°C): higher solubility; solubility (solvent equilibrium experiment) ([1]; hydrochloride): 25 mg/g; antithrombotic effect, in words (rat in vitro thrombosis; conclusion from table 2 and table 3 (oral and in vitro administration, rat)): good antithrombotic effect
O=C(CCl)Oc1ccc2c(=O)c(-c3ccc(O)cc3)coc2c1 [7-O-chloroacetyl daidzein]	17.6 mg/g												
CCN(CC)CC(=O)Oc1ccc2c(=O)c(-c3ccc(O)cc3)coc2c1 [7-O-N,N-diethyl-aminoacetyl daidzein, 7-O—N,N-diethyl-aminoacetyl daidzein]	16.3 mg/g												
CCN(CC)CC(=O)Oc1ccc2c(=O)c(-c3ccc(O)cc3)coc2c1		35.1 ± 6.6 min	26.7 ± 4.8 s	44.3%	20.6 ± 5.5 min	485.4 u	33.6 ± 11.1 min	297.6 u	10.7 ± 1.96 cm	8.17 ± 1.54 min	14.9 ± 1.27 cm	6.29 ± 1.31 min	effect on hypoxia tolerance time, in words [2]: significantly prolong; Prolongation rates (survival time) ([2]; 36 mg/kg intraperitoneally): 56%; effect on acute ischemia tolerance time, in words (decapitated mice): significantly prolong; antithrombotic effect after oral administration, in words [3]: significant efficacy; antithrombotic effect after oral administration, in words (thrombus): significant efficacy
